Reference: patent US20190225650A1, “PEPTIDOMIMETIC MACROCYCLES AND USE THEREOF IN REGULATING HIF1ALPHA” (AILERON THERAPEUTICS, INC., priority 2013, published 2019)
Bridge positions count the residues as written; N and C are the ends. Square brackets hold non-standard residues; d marks the D form. Peptide text beside a SMILES is read from it. R8 = C=CCCCCCC[C@@](C)(N)C(=O)O; S5 = C=CCCC[C@](C)(N)C(=O)O; Nle = CCCC[C@H](N)C(=O)O

Tests used:
HRE-bla ME-180 cells [1] = experiment: Reporter gene assay (HRE-bla ME-180 HIF reporter, GeneBLAzer); assay type: cell-based, human; settings: for EC50: 24 hour normoxia
Summary of the method: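 A FRET β-lactamase readout of HIF transcription was used. After compound treatment in 0.3% DMSO/media under normoxic conditions, 20 μl of 6× LiveBLAzer-FRET B/G (CCF4-AM) substrate was added. Plates sat 3 hr at room temperature in the dark and were read at 409 Ex/460Em and 409Ex/530Em on a Synergy 2. Inhibition was compared against DMSO vehicle controls, with chetomin as positive control.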

HRE-bla ME-180 cells [2] = experiment: Cell proliferation assay (viability, MTT, 1% FBS); assay type: cell-based, human
Summary of the method: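 ME-180 cells (2×10^4/well) in Opti-MEM with 1% FBS were pretreated 16 h under normoxia (21% O2), vehicle 0.5% DMSO final. Incubation then continued under normoxia or hypoxia (1% O2); viable cells quantified by MTT-type CellTiter 96 assay.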

[3] = target: T1, flag-tagged HIF1α (AA 786-826) / His6-tagged p300 (AA 323-423) complex (Homo sapiens, UniProt Q09472); experiment: HIF1α p300 displacement assay (TR FRET, +CHAPS); assay type: binding; settings: read-out: IC50 (nM) (HIF1α_p300 Displacement + CHAPS)
T1 construct: His6-tagged p300 (AA 323-423); made in house; host or cells: E. coli (pETDuet vector)
T1 sequence (Q09472 323-423, one chain of several): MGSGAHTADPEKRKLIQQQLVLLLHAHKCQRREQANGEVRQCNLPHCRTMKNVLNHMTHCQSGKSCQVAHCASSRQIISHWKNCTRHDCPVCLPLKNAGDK
Summary of the method: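 The co-expressed flag-HIF1α (786-826)/His6-p300 (323-423) complex, purified from E. coli with 0.1 mM ZnSO4, was used at 300 nM final with competitor peptides for 1 h at room temperature. Buffer was 150 mM NaCl, 20 mM HEPES pH 7.4, 7.5 mM CHAPS and 1 mM DTT. Anti-Flag-K (0.5 μM) and anti-His-D2 (4 nM) were then added for 2 h, and IC50s were fitted from the TR-FRET ratio.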

| SMILES | 18 h Avg % max inhibition at top conc (HIF Rptr-24 hrs normoxia) (μM) (HRE-bla ME-180 cells [1]) | EC50 (HRE-bla ME-180 cells [1]) | Viability 1% FBS AVG (MTT V3-24 hr Normoxia) (μM) (HRE-bla ME-180 cells [2]) | IC50 [3] |
| --- | --- | --- | --- | --- |
| CCCC[C@H](NC(=O)[C@H](CCC(=O)O)NC(=O)[C@]1(C)CCCC=CCCCCCC[C@@](C)(NC(=O)[C@H](CCC(=O)O)NC(=O)[C@H](CC(=O)O)NC(=O)[C@@H](NC(=O)[C@H](CC(N)=O)NC(=O)[C@@H](NC(=O)[C@H](CCC(N)=O)NC(=O)[C@]2(C)CCCC=CCCC[C@](C)(NC(=O)[C@H](CC(C)C)NC(=O)[C@H](CCC(=O)O)NC(=O)[C@H](CCC(=O)O)NC(=O)[C@H](C)NC(=O)[C@H](CCC(N)=O)NC(=O)[C@H](CC(C)C)NC(=O)[C@H](CC(C)C)NC(C)=O)C(=O)N[C@@H](CCCNC(=N)N)C(=O)N[C@@H](C)C(=O)N[C@@H](CC(C)C)C(=O)N2)C(C)C)[C@@H](C)CC)C(=O)N[C@@H](C(C)C)C(=O)N[C@@H](CC(C)C)C(=O)N[C@@H](CCCC)C(=O)N[C@@H](CO)C(=O)N[C@@H](CC(C)C)C(=O)N[C@@H](C(C)C)C(=O)N1)C(N)=O [SP-367] (Ac-LLQAEEL[S5]RAL[S5]QVNIDE[R8]VL[Nle]SLV[S5]E[Nle]-NH2; staple 8-12, 19-26) | ++++ (≥50: ++++) | ≤ 5 µM | ++++ (≥30: ++++) | 400 to 700 nM |
| CC[C@H](C)[C@H](NC(=O)[C@H](Cc1ccccc1)NC(C)=O)C(=O)N[C@@H](CC(=O)O)C(=O)N[C@@H](CCC(=O)O)C(=O)N[C@@]1(C)CCCC=CCCC[C@@](C)(C(=O)N[C@@H](CC(C)C)C(=O)N[C@H](C(=O)N[C@H](C(=O)N[C@@H](CCC(=O)O)C(=O)N[C@@H](CCSC)C(=O)NCC(=O)N[C@@H](CC(C)C)C(=O)N[C@@H](CC(=O)O)C(=O)N[C@@H](CCCNC(=N)N)C(=O)N[C@H](C(=O)N[C@@H](CCCCN)C(=O)N[C@@H](CCC(=O)O)C(=O)N[C@@H](CC(C)C)C(=O)N2CCC[C@H]2C(=O)N[C@@H](CCC(=O)O)C(=O)N[C@@H](CC(C)C)C(=O)N[C@@H](Cc2c[nH]c3ccccc23)C(=O)N[C@@H](CC(C)C)C(N)=O)[C@@H](C)CC)[C@@H](C)CC)C(C)C)NC(=O)[C@H](CCSC)NC(=O)[C@H](CC(C)C)NC(=O)[C@H](C(C)C)NC1=O [SP-104] (Ac-FIDE[S5]VLM[S5]LVIEMGLDRIKELPELWL-NH2; staple 5-9) | ++++ (≥50: ++++) | 5 to 15 µM | ++++ (≥30: ++++) | 200 to 400 nM |
| CCCC[C@H](NC(=O)[C@H](Cc1ccccc1)NC(=O)[C@@H](NC(=O)[C@H](C)NC(=O)[C@H](CCC(N)=O)NC(=O)[C@H](CC(=O)O)NC(=O)[C@@H](NC(=O)[C@H](Cc1ccccc1)NC(C)=O)[C@@H](C)CC)C(C)C)C(=O)N[C@@]1(C)CCCC=CCCC[C@@](C)(C(=O)N[C@@H](CO)C(=O)N[C@@H](C)C(=O)N[C@@H](CC(C)C)C(=O)N[C@@H](CC(C)C)C(N)=O)NC(=O)[C@H]([C@@H](C)CC)NC(=O)[C@H](C(C)C)NC(=O)[C@H](CC(C)C)NC1=O [SP-257] (Ac-FIDQAVF[Nle][S5]LVI[S5]SALL-NH2; staple 9-13) | ++++ (≥50: ++++) | 5 to 15 µM | ++ (≤5 but <15: ++) | > 700 nM |
| CCCC[C@@H]1NC(=O)[C@H](CC(C)C)NC(=O)[C@H](C(C)C)NC(=O)[C@@](C)(NC(=O)[C@H](CCC(=O)O)NC(=O)[C@H](CC(=O)O)NC(=O)[C@@H](NC(=O)[C@H](Cc2ccccc2)NC(C)=O)[C@@H](C)CC)CCCC=CCCCC2(CCCC=CCCC[C@](C)(C(=O)N[C@@H](CCCC)C(=O)N[C@@H](C)C(=O)N[C@@H](CC(C)C)C(N)=O)NC(=O)[C@H]([C@@H](C)CC)NC(=O)[C@H](C(C)C)NC(=O)[C@H](CC(N)=O)NC2=O)NC1=O (some centres unmarked) [SP-210] | ++++ (≥50: ++++) | 5 to 15 µM | + (<5: +) | 200 to 400 nM |
| CCCC[C@H](NC(=O)[C@H](CCC(=O)O)NC(=O)[C@@H](NC(=O)[C@@H](NC(=O)[C@H](CC(C)C)NC(=O)[C@]1(C)CCCC=CCCC[C@](C)(NC(=O)[C@H](CCC(=O)O)NC(=O)[C@H](CC(=O)O)NC(=O)[C@@H](NC(=O)[C@H](Cc2ccccc2)NC(C)=O)[C@@H](C)CC)C(=O)N[C@@H](C(C)C)C(=O)N[C@@H](CC(C)C)C(=O)N[C@@H](CCCC)C(=O)N1)C(C)C)[C@@H](C)CC)C(=O)N[C@@H](C)C(=O)N[C@@H](CC(C)C)C(=O)N[C@@H](CC(=O)O)C(=O)N[C@@H](CCCNC(=N)N)C(=O)N[C@H](C(N)=O)[C@@H](C)CC [SP-109] (Ac-FIDE[S5]VL[Nle][S5]LVIE[Nle]ALDRI-NH2; staple 5-9) | + (<10: +) | > 30 µM | ++ (≤5 but <15: ++) | 200 to 400 nM |
